Laboratory results: patent US9657006B2, “Macrocyclic factor VIIa inhibitors” (BRISTOL-MYERS SQUIBB COMPANY, priority 2013, dated 2017)
Structures can show the parent of a compound that is named as a salt. Where two headings read alike, the source gives them in different places. Values belong to the compound of their own block, whether it stands above or below them.

Assays:
[1] = amide bond, 15-membered ring, HATU/NMM, DMF, 25.0 °C, 12.0 h
[2] = from CNCc1cc(NC(=O)COCc2cccc(C(Nc3ccc4c(N(C(=O)OC(C)(C)C)C(=O)OC(C)(C)C)ncc(F)c4c3)C(=O)O)c2)ccc1S(=O)(=O)C1CC1; amide bond; 15-membered ring; BOP/DMAP/DIPEA; DCM/DMF; 20.7 mM; 25.0 °C; 13.0 h; 2 steps
[3] = biological target: T1, FVIIa (Homo sapiens, UniProt P08709); assay: FVIIa-Xase Ki (37° C.); format: biochemical
T1 construct: with about 1% of the total amount in the proteolytically active form factor VIIa
T1 sequence (P08709 213-466 limits assumed): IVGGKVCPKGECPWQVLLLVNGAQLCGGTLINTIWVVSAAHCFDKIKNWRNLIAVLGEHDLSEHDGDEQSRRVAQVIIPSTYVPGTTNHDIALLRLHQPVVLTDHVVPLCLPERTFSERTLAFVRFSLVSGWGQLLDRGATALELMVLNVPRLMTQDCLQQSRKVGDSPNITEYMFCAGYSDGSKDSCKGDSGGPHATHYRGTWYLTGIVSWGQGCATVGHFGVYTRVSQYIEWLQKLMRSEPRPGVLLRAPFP
T1 sequence (P08709 61-212 limits assumed): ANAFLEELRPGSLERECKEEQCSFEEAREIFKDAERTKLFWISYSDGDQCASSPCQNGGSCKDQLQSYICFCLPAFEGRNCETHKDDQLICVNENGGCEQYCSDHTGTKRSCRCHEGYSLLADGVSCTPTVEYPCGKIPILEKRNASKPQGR
T1 sequence (P13726 33-295 partner): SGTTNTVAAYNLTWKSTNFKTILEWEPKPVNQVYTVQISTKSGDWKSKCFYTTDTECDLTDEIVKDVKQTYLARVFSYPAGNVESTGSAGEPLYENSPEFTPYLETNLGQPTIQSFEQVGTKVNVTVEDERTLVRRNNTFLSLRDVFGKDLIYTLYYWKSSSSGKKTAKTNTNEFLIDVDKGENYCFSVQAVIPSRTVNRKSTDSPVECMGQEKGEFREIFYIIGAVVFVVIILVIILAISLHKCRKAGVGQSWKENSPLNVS
Experimental: The effectiveness of compounds of the present invention as inhibitors of the coagulation Factors, VIIa, IXa, Xa, XIa, XIIa, plasma kallikrein or thrombin, tissue kallikrein and activated protein C, can be determined using a relevant purified serine protease, respectively, and an appropriate synthetic substrate. The rate of hydrolysis of the chromogenic or fluorogenic substrate by the relevant serine protease was measured both in the absence and presence of compounds of the present invention. […] A decrease in the rate of absorbance or fluorescence change in the presence of inhibitor is indicative of enzyme inhibition. Such methods are known to one skilled in the art. The results of this assay are expressed as the inhibitory constant, Ki.
Reactions were initiated by the addition of human FX (range of concentrations). […] The residual FVIIa is sufficient, when combined with PCPS, calcium and TF to catalyze the conversion of FX to Xa, and was increased by the addition of 5 pM human FVIIa. FXa in turn hydrolyses S2765, which was monitored for 60 min at 405 nm. FXase activity was derived from the parabolic change in absorbance over time according to Equation 2: Absorbance=½ at 2+bt+c (Eq. 2) where a is proportional to the rate of FX activation≡product≡vs; b is proportional to the hydrolysis of S2765 in the absence of FXa; c is the absorbance at t=0. […]

SMILES: CN1CCc2cccc(c2)C(Nc2ccc3c(N(C(=O)OC(C)(C)C)C(=O)OC(C)(C)C)nccc3c2)C(=O)N(C)Cc2cc(ccc2S(=O)(=O)C2CC2)NC1=O (centres unmarked)
ring closure, yield after HPLC ([1]; from CNCc1cc(NC(=O)N(C)CCc2cccc(C(Nc3ccc4c(N(C(=O)OC(C)(C)C)C(=O)OC(C)(C)C)nccc4c3)C(=O)O)c2)ccc1S(=O)(=O)C1CC1): 61%

SMILES: CN1Cc2cc(ccc2S(=O)(=O)C2CC2)NC(=O)COCc2cccc(c2)C(Nc2ccc3c(N(C(=O)OC(C)(C)C)C(=O)OC(C)(C)C)ncc(F)c3c2)C1=O (centres unmarked)
ring closure, crude yield [2]: 48%

SMILES: COc1ccc2cc1[C@H](C)CN(C)C(=O)Nc1ccc(S(=O)(=O)C3CC3)c(c1)CN(C)C(=O)C2Nc1ccc2c(N(C(=O)OC(C)(C)C)C(=O)OC(C)(C)C)nccc2c1 (some centres unmarked)
ring closure, yield after HPLC ([1]; from CNCc1cc(NC(=O)N(C)C[C@@H](C)c2cc(C(Nc3ccc4c(N(C(=O)OC(C)(C)C)C(=O)OC(C)(C)C)nccc4c3)C(=O)O)ccc2OC)ccc1S(=O)(=O)C1CC1, 1.11 mM): 11%

Ki [3]: 92 nM
SMILES: CN1Cc2cc(ccc2S(=O)(=O)C2CC2)NC(=O)CCc2cc(ccc2O)[C@@H](Nc2ccc3c(N)ncc(F)c3c2)C1=O (single isomer, unassigned) [Example 16]

Ki [3]: 6 nM
SMILES: CN1CCc2cccc(c2)C(Nc2ccc3c(N)nccc3c2)C(=O)N(C)Cc2cc(ccc2S(=O)(=O)C2CC2)NC1=O (centres unmarked) [Example 13, trifluoroacetic acid salt]
